What was measured:
[1] = Octanol-water partition coefficient, log KOW of the compound; format: physicochemical; details: read-out: log K
Rattus norvegicus = test: Anesthetic potency in Sprague-Dawley rat assessed as loss of righting reflex; format: functional
[2] = molecular target: T1, Gamma-aminobutyric acid receptor subunit alpha-1 (Homo sapiens, UniProt P14867+P18507+P47870); test: Activity at human GABAA alpha-1-beta-2-gamma-2s receptor expressed in HEK293 cells assessed as effect on GABA-induced current at 3 uM by whole cell patch-clamp technique; format: cell-based
T1 sequence (P14867 whole entry): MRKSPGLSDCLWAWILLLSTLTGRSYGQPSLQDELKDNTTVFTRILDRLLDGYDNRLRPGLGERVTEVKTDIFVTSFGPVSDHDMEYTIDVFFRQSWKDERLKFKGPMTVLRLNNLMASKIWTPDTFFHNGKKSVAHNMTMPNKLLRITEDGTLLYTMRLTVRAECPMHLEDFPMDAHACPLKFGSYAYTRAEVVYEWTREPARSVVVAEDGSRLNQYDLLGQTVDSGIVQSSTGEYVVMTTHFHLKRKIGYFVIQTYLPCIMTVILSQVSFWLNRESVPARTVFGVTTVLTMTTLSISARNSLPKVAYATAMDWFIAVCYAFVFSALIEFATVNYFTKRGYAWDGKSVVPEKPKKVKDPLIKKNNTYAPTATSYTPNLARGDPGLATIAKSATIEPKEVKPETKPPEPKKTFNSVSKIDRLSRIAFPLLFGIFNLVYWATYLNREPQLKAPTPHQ

[3] = Binding affinity to human serum albumin
[4] = Chemical stability in aqueous solution assessed as hydrolysis after 4 hrs; format: physicochemical; details: read-out: Activity
Rana temporaria = test: Anesthetic potency in Rana temporaria tadpoles assessed as loss of righting reflex for 60 mins; details: 1 h

CC(c1ccccc1)n1cncc1CO (stereo unspecified)
logP [1]: 1.28

CC(c1ccccc1)n1cncc1C=O (stereo unspecified)
logP [1]: 1.77

C[C@H](c1ccccc1)n1cncc1C(=O)N=[N+]=[N-]
ED50 (Rattus norvegicus): 1.7 mg/kg
EC50 [2]: 11 µM
Kd [3]: 121 µM

CC(c1ccccc1)n1cncc1C(=O)N=[N+]=[N-] (stereo unspecified)
logP [1]: 2.71
degraded at 4 h [4]: 10%

CCOC(=O)c1cncn1[C@H](C)c1ccccc1 [ETOMIDATE]
logP [1]: 2.89
Kd [3]: 176 µM

COC(=O)c1cncn1C(C)c1ccccc1 (stereo unspecified) [METOMIDATE]
logP [1]: 2.28

CCOC(=O)c1cncn1[C@@H](C)c1ccccc1 [S-ETOMIDATE]
EC50 (Rana temporaria): 36 µM

Source: ChEMBL document CHEMBL1156442 (J Biol Chem, 2007)
